{"source": "patent US20200078404A1", "about": "“COMBINATION OF A CELL THERAPY AND AN IMMUNOMODULATORY COMPOUND” (Juno Therapeutics, Inc., priority 2017, published 2020)", "key": {"[1]": {"tested_on": "anti-CD19 CAR-expressing T cells", "test": "Surface markers after anti-idiotypic antibody stimulation", "type": "cell-based, human", "excerpt": "CAR-expressing T cells were stained for CD3, CD4, CD8 and the surrogate marker for CAR expression, and also for the following markers: CD25, PD-1, and CD69."}, "[2]": {"tested_on": "anti-BCMA CAR T cells", "test": "Proliferation and expansion of anti-BCMA CAR T cells stimulated with BCMA-conjugated beads", "type": "cell-based, human", "conditions": "5 μM lenalidomide", "description": "Cryofrozen anti-BCMA CAR T cells, produced substantially as described in Example 2 and formulated at a 1:1 ratio of CD4+ and CD8+ T cells, were thawed.\nTotal cell count, monitored at day 4 (FIG. 21E) and day 7 (FIG. 21F), was increased following stimulation of anti-BCMA CAR+ T cells with beads from a 50 μg/mL BCMA-conjugated bead composition, but not 5 μg/mL BCMA-conjugated bead composition, compared to the cells present at the time of initiation of the incubation (dashed line).\nTo further assess proliferation, the cells containing anti-BCMA CAR-expressing T cells were labeled with the proliferation marker dye CELLTRACE VIOLET (CTV; ThermoFisher Scientific, Waltham Mass.) in accordance with the manufacturer's protocol prior to incubation with the BCMA-conjugated beads. Proliferation was assessed by dye dilution using flow cytometry on cells that were stimulated with beads from the 50 μg/mL BCMA-conjugated bead composition.\nFour days and seven days after addition of BCMA-conjugated beads, the incubated cells were stained with CD4 or CD8 and with an anti-EGFR antibody to determine the percentage of cells positive for EGFRt as a surrogate for CAR+ T cells. At the time of plating, 26% of the CD4+ cells expressed anti-BCMA CAR and 39% of the CD8+ cells expressed anti-BCMA CAR as determined by staining with BCMA-Fc. The percent of EGFRt+CD4+ T cells increased from about 26% at the initiation of the incubation to greater than 40% by day 4 (FIG. 21H) and greater than 60% by day 7 (FIG. 21I) when the cells were incubated in the presence of beads from a 50 μg/mL BCMA-conjugated bead composition. […] The extent of cell expansion was greatest when cells were incubated in the presence of beads from a 50 μg/mL BCMA-conjugated bead composition compared to beads from the 5 μg/mL BCMA-conjugated bead composition."}, "[3]": {"tested_on": "anti-CD19 CAR-expressing T cells", "test": "Cytokine production after anti-idiotypic antibody stimulation", "conditions": "anti-idiotypic antibody 0.3-30 μg/ml, 24 hours; Compound 1 100, 1000 nM; lenalidomide 500, 5000 nM"}, "[4]": {"tested_on": "anti-BCMA CAR T cells", "test": "Cytokine production of anti-BCMA CAR T cells on low, medium, high BCMA bead stimulation", "type": "cell-based, human", "description": "In another study, recombinant human BCMA-conjugated beads were used to stimulate CAR T cells at various concentrations to titrate the magnitude of stimulation, either low (5 μg/mL), medium (50 μg/mL), and high (200 μg/mL) stimulation."}, "[5]": {"tested_on": "OPM-2 target cells", "test": "Cytolytic activity of anti-BCMA CAR T cells co-cultured with OPM-2 target cells with or without lenalidomide", "type": "cell-based, human", "description": "[…]. The OPM-2 cells were labeled with NucLight Red (NLR) to permit tracking of target cells by microscopy substantially as described above. […] […].\n[…]. Cytolytic activity was measured by loss of red fluorescent cells. […]."}, "[6]": {"tested_on": "OPM-2", "conditions": "read-out: sensitive to lenalidomide; cited from earlier work"}, "[7]": {"tested_on": "RPMI-8226 target cells", "test": "Serial restimulation on BCMA-conjugated beads, cytolytic activity against RPMI-8226 at each reset", "type": "cell-based, human", "conditions": "preincubated with 5 μM lenalidomide for 7 days or 14 days", "description": "Anti-BCMA CAR T cell compositions were generated from three different donors, each containing T cells expressing the same anti-BCMA CAR, thawed, and were incubated for seven days with beads (diameter about 4.5 μm) at a 1:1 ratio of beads to cells from a 50 μg/mL BCMA-conjugated bead composition generated as described in Example 9.\nCells from each condition were plated in triplicate. The % cell killing compared to vehicle only control (set at 100%) was determined."}, "[8]": {"tested_on": "K562.CD19 target cells", "test": "Cytolytic function of anti-CD19 CAR-expressing T cells against K562.CD19 target cells", "type": "cell-based, human", "description": "K562.CD19 target cells were transduced with NucLight Red to permit their tracking by microscopy. Cytolytic activity was assessed by measuring the loss of viable target cells over a period of five days, as determined by red fluorescent signal (using the IncuCyte® Live Cell Analysis System, Essen Bioscience)."}, "[9]": {"tested_on": "anti-CD19 CAR-expressing T cells", "test": "Serial stimulation with K562.CD19: surface markers", "type": "cell-based, human", "description": "Every 3-4 days (start of each new round), the cells were counted.\nExpression of select surface markers was assessed on cells at day 4 (i.e., 4 days after the first stimulation) and day 28 (i.e., 4 days after the seventh stimulation). Specifically, harvested cells were analyzed by flow cytometry for CD3, CD4, CD8 and the surrogate marker for CAR expression, and also for the following surface markers: CD69, CD107a, PD-1, CD25, CD62L, CCR7, CD45RO, CD27, and LAG3."}, "[10]": {"conditions": "medium stimulation (50 μg BCMA beads), 24 hours, 1 μM lenalidomide"}}, "data": [{"smiles": "Nc1cccc2c1CN(C1CCC(=O)NC1=O)C2=O", "note": "(stereo not shown) [lenalidomide, 3-(4-amino-1-oxo-1,3-dihydro-2H-isoindol-2-yl)piperidine-2,6-dione]", "values": [{"measurement": "surface markers CD25 and CD69", "setting": "[1]; CD4+ and CD8+ CAR-expressing T cells, day 4, some donors", "value": "increase in surface markers CD25 and CD69"}, {"measurement": "expression of PD-1", "setting": "[1]; day 4, unchanged or decreased in the other donors", "value": "increased in the presence of Compound 1 or lenalidomide in cells generated from at least one donor"}, {"measurement": "total cell count (proliferation)", "setting": "[2]; 50 ug beads, day 7", "value": "small increase in proliferation"}, {"measurement": "proliferation by CTV dilution", "setting": "[2]; 50 μg/mL beads, day 4 but not day 7", "value": "slight delay in proliferation"}, {"measurement": "extent of CAR+ T cell expansion (% EGFRt+)", "setting": "[2]; day 4 and day 7", "value": "did not substantially impact the extent of CAR+ T cell expansion"}, {"measurement": "IFN-γ, IL-2 and TNF-α production", "setting": "[3]", "value": "increased relative to the vehicle control"}, {"measurement": "percentage of IFN-γ+ and TNF-α+ intracellular staining", "setting": "[4]; 0.1 or 1.0 μM lenalidomide, all stimulation levels, CD4+ and CD8+", "value": "increased the percentage of IFN-γ^+ and TNF-α^+ intracellular staining"}, {"measurement": "percentage of IL-2+ CAR+ T cells", "setting": "[4]; 5-μg stimulation", "value": "increasing the percentage of IL-2^+ CAR^+ T cells"}, {"measurement": "percentage of IL-2+ CAR+ T cells", "setting": "[4]; 50-μg and 200-μg stimulation", "value": "decreasing the percentage of IL-2^+ CAR^+ T cells"}, {"measurement": "CAR T cytokine production", "setting": "[4]; absence of stimulation", "value": "had no effect on CAR T cytokine production"}, {"measurement": "increase in IL-2 concentration compared with vehicle control", "setting": "[4]; [10]", "value": 200, "unit": "%"}, {"measurement": "increase in TNF-α concentration compared with vehicle control", "setting": "[4]; [10]", "value": 200, "unit": "%"}, {"measurement": "IFN-γ concentration compared with vehicle control", "setting": "[4]; medium stimulation, 24 hours", "value": "donor-dependent increases"}, {"measurement": "cytolytic activity of anti-BCMA CAR+ T cells", "setting": "[5]; 0.01-10 μM lenalidomide, E:T 1:1, 7 days, four donors", "value": "enhance cytolytic activity of the anti-BCMA CAR+ T cells against OPM-2 target cells, in a dose-dependent manner"}, {"measurement": "antigen-specific anti-BCMA CAR-T cytolytic activity", "setting": "[5]; healthy donor and multiple myeloma patient, E:T 0.3:1, 6 to 7 days", "value": "increased by lenalidomide in a concentration-dependent manner"}, {"measurement": "anti-BCMA CAR T cytolytic activity", "setting": "[5]; increased concentrations of lenalidomide, all donors", "value": "Increased anti-BCMA CAR T cytolytic activity against OPM-2 target cells"}, {"measurement": "IC50", "setting": "[6]", "value": 37.4, "unit": "µM"}, {"measurement": "cytolytic activity", "setting": "[7]", "value": "exhibited greater cytolytic activity"}, {"measurement": "cytolytic activity of anti-CD19 CAR-expressing cells", "setting": "[8]; 2.5:1 E:T ratio, some donors", "value": "slightly reduced cytolytic activity"}, {"measurement": "cytolytic activity of anti-CD19 CAR-expressing T cells", "setting": "[8]; 5:1 E:T ratio, high concentrations, Donor 2, no effects with Donors 1 and 3", "value": "slight but consistent increase in cytolytic activity"}, {"measurement": "cytolytic function of anti-CD19 CAR-expressing T cells", "setting": "[8]; five days, three donors", "value": "limited effect on cytolytic function"}, {"measurement": "expression of CD28", "setting": "[9]; CD4+ and CD8+ CAR-expressing T cells, day 28, three donors", "value": "decreased in a dose-dependent manner"}, {"measurement": "PD-1 expression", "setting": "[9]; both E:T ratios, day 4 and day 28", "value": "downregulated to some degree in all donors"}, {"measurement": "CD25 and LAG3 expression", "setting": "[9]; day 4", "value": "upregulated across all three donors"}, {"measurement": "CCR7 expression", "setting": "[9]; day 28", "value": "generally decreased at day 28"}]}]}
